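GI50 = concentration required for 50% inhibition of growth. At the TGI there is no net growth.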
Columns and labels:
Experiment in all cases: DTP human tumour cell line panel, 384-well format
[1] = system: 786-0 renal
[2] = system: A498 renal
[3] = system: A549 NSCLC
[4] = system: ACHN renal
[5] = system: BT-549 breast
[6] = system: CAKI-1 renal
[7] = system: CCRF-CEM leukemia
[8] = system: COLO 205 colon
[9] = system: DU-145 prostate
[10] = system: EKVX NSCLC
[11] = system: HCC-2998 colon
[12] = system: HCT-116 colon
[13] = system: HCT-15 colon
[14] = system: HL-60(TB) leukemia
[15] = system: HOP-62 NSCLC
[16] = system: HOP-92 NSCLC
[17] = system: HS 578T breast
[18] = system: HT29 colon
[19] = system: IGROV1 ovarian
[20] = system: K-562 leukemia
[21] = system: KM12 colon
[22] = system: LOX IMVI melanoma
[23] = system: M14 melanoma
[24] = system: MALME-3M melanoma
[25] = system: MCF7 breast
[26] = system: MDA-MB-231 breast
[27] = system: MDA-MB-435 melanoma
[28] = system: MDA-MB-468 breast
[29] = system: MOLT-4 leukemia
[30] = system: NCI-H226 lung
[31] = system: NCI-H23 lung
[32] = system: NCI-H322M lung
[33] = system: NCI-H460 NSCLC
[34] = system: NCI-H522 lung
[35] = system: NCI/ADR-RES ovarian
[36] = system: OVCAR-3 ovarian
[37] = system: OVCAR-4 ovarian
[38] = system: OVCAR-5 ovarian
[39] = system: OVCAR-8 ovarian
[40] = system: PC-3 prostate
[41] = system: RPMI-8226 leukemia
[42] = system: RXF 393 renal
[43] = system: SF-268 CNS
[44] = system: SF-295 CNS
[45] = system: SF-539 CNS
[46] = system: SK-MEL-2 melanoma
[47] = system: SK-MEL-28 melanoma
[48] = system: SK-OV-3 ovarian
[49] = system: SN12C renal
[50] = system: SNB-19 CNS
[51] = system: SNB-75 CNS
[52] = system: SR leukemia
[53] = system: SW-620 colon
[54] = system: T-47D breast
[55] = system: TK-10 renal
[56] = system: U251 glioblastoma
[57] = system: UACC-257 melanoma
[58] = system: UACC-62 melanoma
[59] = system: UO-31 renal

`CO[C@H]1C[C@@H]2CC[C@@H](C)[C@@](O)(O2)C(=O)C(=O)N2CCCC[C@H]2C(=O)O[C@H]([C@H](C)C[C@@H]2CC[C@@H](O)[C@H](OC)C2)CC(=O)[C@H](C)C=C(C)[C@@H](O)[C@@H](OC)C(=O)[C@H](C)C[C@H](C)/C=C/C=C/C=C1C` gave a GI50 [1] of 5.99 µM, a TGI [1] of 26.9 µM and a TGI [2] of 17.4 µM. It also gave a TGI [3] of over 45.4 µM, a GI50 [4] of 1.61 µM and a TGI [4] of 23.4 µM. It also gave a GI50 [5] of 3.98 µM, a TGI [5] of 18.7 µM and a TGI [6] of 21.5 µM. For the same molecule, the TGI [7] was 7.12 µM, the GI50 [8] was 11.3 µM and the TGI [8] was 23.4 µM. It also gave a GI50 [9] of 4.69 µM, a TGI [9] of 36.2 µM and a GI50 [10] of 12.3 µM. The TGI [10] was 29.1 µM, the GI50 [11] was 4.72 µM and the TGI [11] was 18.6 µM. It also gave a GI50 [12] of 8.71 µM, a TGI [12] of 24.2 µM and a GI50 [13] of 3.92 µM. It also gave a TGI [13] of 19.7 µM, a GI50 [14] of 3.98 µM and a TGI [14] of 7.97 µM. For the same molecule, the TGI [15] was 20.2 µM, the GI50 [16] was 11 µM and the TGI [16] was 25 µM. It also gave a TGI [17] of 9.94 µM, a GI50 [18] of 6.66 µM and a TGI [18] of 21.8 µM. The TGI [19] was 15.3 µM, the GI50 [20] was 4.35 µM and the TGI [20] was 18.4 µM. For the same molecule, the GI50 [21] was 10.2 µM, the TGI [21] was 23.1 µM and the GI50 [22] was 13.1 µM. The TGI [22] was 25.8 µM, the GI50 [23] was 11 µM and the TGI [23] was 23.7 µM. It also gave a TGI [24] of 20.6 µM, a TGI [25] of 15.4 µM and a GI50 [26] of 12 µM. For the same molecule, the TGI [26] was 24.5 µM, the GI50 [27] was 11.6 µM and the TGI [27] was 24.2 µM. It also gave a TGI [28] of 8.1 µM, a TGI [29] of 4.88 µM and a GI50 [30] of 10.3 µM. The TGI [30] was 23.5 µM, the GI50 [31] was 12 µM and the TGI [31] was 24.8 µM. It also gave a GI50 [32] of 12.7 µM, a TGI [32] of 25.8 µM and a TGI [33] of 16.8 µM. It also gave a GI50 [34] of 6.69 µM, a TGI [34] of 21.4 µM and a GI50 [35] of 14.9 µM. The TGI [35] was 34.2 µM, the GI50 [36] was 10.9 µM and the TGI [36] was 24.2 µM. For the same molecule, the GI50 [37] was 9.82 µM, the TGI [37] was 25.5 µM and the GI50 [38] was 12.9 µM. The TGI [38] was 27.4 µM, the GI50 [39] was 7.29 µM and the TGI [39] was 22.6 µM. For the same molecule, the TGI [40] was 17.9 µM, the TGI [41] was 4.45 µM and the GI50 [42] was 12.5 µM. It also gave a TGI [42] of 25.2 µM, a GI50 [43] of 10.2 µM and a TGI [43] of 23.8 µM. It also gave a TGI [44] of 20 µM, a GI50 [45] of 2.53 µM and a TGI [45] of 19.6 µM. The GI50 [46] was 11.2 µM, the TGI [46] was 27.9 µM and the GI50 [47] was 12.7 µM. For the same molecule, the TGI [47] was 25.5 µM, the GI50 [48] was 10.7 µM and the TGI [48] was 22.9 µM. The GI50 [49] was 7.42 µM, the TGI [49] was 24.5 µM and the GI50 [50] was 6.46 µM. The TGI [50] was 23.2 µM, the GI50 [51] was 13 µM and the TGI [51] was 25.8 µM. The TGI [52] was 1.89 µM, the GI50 [53] was 13 µM and the TGI [53] was 26 µM. The GI50 [54] was 1.33 µM, the TGI [54] was 36.6 µM and the GI50 [55] was 0.518 µM. For the same molecule, the TGI [55] was 27.5 µM, the GI50 [56] was 3.94 µM and the TGI [56] was 20.3 µM. It also gave a GI50 [57] of 16 µM, a TGI [57] of 29.6 µM and a GI50 [58] of 4.54 µM. It also gave a TGI [58] of 19.7 µM, a GI50 [59] of 11 µM and a TGI [59] of 23.2 µM.

From PubChem BioAssay (NCI)
